Test results reported in article PMC11936226, “Tris inhibits a GH1 β-glucosidase by a linear mixed inhibition mechanism” (PLOS One, 2025).

Experiments:
[1] = molecular target: T1, Sfβgly (GH1 β-glucosidase) (Spodoptera frugiperda, UniProt O61594); test: hydrolysis initial rates by purified enzyme (glucose detection); assay type: biochemical
T1 construct: purified recombinant Sfβgly

[2] = molecular target: T1, Sfβgly (GH1 β-glucosidase); test: steady-state inhibition kinetics (Lineweaver-Burk) with NPβglc as substrate; also with cellobiose (Ki […]); assay type: biochemical

T1 sequence (O61594 21-509): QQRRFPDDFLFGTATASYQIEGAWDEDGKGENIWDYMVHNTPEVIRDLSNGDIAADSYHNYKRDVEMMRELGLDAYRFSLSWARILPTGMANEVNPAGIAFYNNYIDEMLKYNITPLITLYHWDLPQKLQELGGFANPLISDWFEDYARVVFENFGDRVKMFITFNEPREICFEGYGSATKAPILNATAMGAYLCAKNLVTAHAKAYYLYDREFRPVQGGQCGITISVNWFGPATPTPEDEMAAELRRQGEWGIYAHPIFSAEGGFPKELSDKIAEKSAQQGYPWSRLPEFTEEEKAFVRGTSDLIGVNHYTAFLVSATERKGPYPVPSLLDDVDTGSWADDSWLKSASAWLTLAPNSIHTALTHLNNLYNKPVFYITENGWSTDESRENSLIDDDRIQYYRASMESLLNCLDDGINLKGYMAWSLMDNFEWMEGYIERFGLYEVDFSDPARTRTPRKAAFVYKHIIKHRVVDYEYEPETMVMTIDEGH

Structure (SMILES)	hydrolysis initial rates by purified enzyme (glucose detection) [1]	Ki [2]
OC[C@H]1O[C@@H](O[C@H]2[C@H](O)[C@@H](O)C(O)O[C@@H]2CO)[C@H](O)[C@@H](O)[C@@H]1O (some centres unmarked) [C2, cellobiose]	The same experiment was repeated using C2, a natural substrate of Sfβgly, and two independent enzyme samples.	–
NC(CO)(CO)CO [Tris, 2-amino-2-(hydroxymethyl)-1,3-propanediol]	–	12 ± 2 mM
